Structures can show the parent of a compound that is named as a salt.
Tests used:
[1] = test system: d-amphetamine-stimulated locomotor activity in rats; assay: d-Amphetamine-stimulated locomotor activity (LMA); assay type: in vivo, Sprague Dawley rat; conditions: rat, oral, 30 min before d-amphetamine 1 mg/kg s.c., 2 h recording
Method: d-Amphetamine-Stimulated Locomotor Activity (LMA):
The LMA model is used to test novel compounds for efficacy as orally active dopaminergic (DA) antagonists. In this model, administration of d-amphetamine to rats induces a stimulation of locomotor activity, measured as centimeters traveled over a two-hour period. Compounds are administered prior to d-amphetamine, and their efficacy in decreasing the stimulated locomotion is assessed as a measure of DA antagonism.
Sprague Dawley (S-D) male rats were obtained from Harlan Laboratories, Indianapolis Ind. All rats weighed 130-150 g at the time of arrival and were housed in groups of 5 for at least 1 week prior to testing. Food and water were available ad lib. At the time of testing, rats weighed 150-200 g. Tests occurred between 9:00 AM and 4:00 PM. All rats were food deprived overnight prior to testing.
Locomotor activity testing in rats was performed using 16-Beam Digiscan Animal Activity Monitors (Accuscan Electronics, Columbus, Ohio). Each test chamber consisted of a Plexiglas box measuring 16×16 inches, placed within the monitor frame. The entire monitor/chamber assembly is further housed inside a stainless steel sound-attenuating chamber (SAC). The SAC is lighted, ventilated, and isolates the rat from room environment. Rats were tested one per chamber. Data is collected using Versamax software.
Each test consists of four treatment groups, vehicle and three doses of the test compound. Each treatment group is comprised of 8 animals. The test is performed in two sessions, with 4 groups of 4 rats in each treatment group tested in each session, and data from the two sessions, typically morning and afternoon of the same day, combined to give a total of 8 rats per group.
Rats were removed from the housing room and transported to the test room in transfer cages. […]
Data were collected as centimeters traveled during the 2 hour test period. The effect of the test compound was expressed as a percentage decrease (or increase) in stimulated locomotor activity relative to the activity observed in the vehicle-treated group. […]

dopamine D2 receptor = target: T1, dopamine D2 receptor (Homo sapiens, UniProt P14416); assay: Dopamine D2 receptor binding ([3H]spiperone, CHO-hD2L membranes); conditions: [3H]spiperone 0.4 nM
T1 construct: expressed in transfected cells; host or cells: CHO cells (CHO-hD2L)
Text: (§1) The ability of the compounds of this invention to bind to the dopamine D2 and serotonin 2A (5HT2A) receptors can be determined using conventional radioligand receptor binding assays. All receptors can be heterologously expressed in cell lines and experiments conducted in membrane preparations from the cell lines using procedures outlined below. IC50 concentrations can be determined by nonlinear regression of concentration-dependent reduction in specific binding. The Cheng-Prussoff equation can be used to convert the IC50 to Ki concentrations.
Dopamine D2 Receptor Binding:
[^3H]Spiperone binding to a membrane preparation from CHO-hD2L cells is carried out in 250 μl of 50 mM Tris-HCl buffer containing 100 mM NaCl, 1 mM MgCl2 and 1% DMSO at pH 7.4. Duplicate samples containing (in order of addition) the test compounds, 0.4 nM [^3H]spiperone and approximately 12 μg protein are incubated for 120 minutes at room temperature. Bound radioligand is separated by rapid filtration under reduced pressure through Whatman GF/B glass fiber filters previously treated with 0.3% polyethyleneimine. Radioactivity retained on the filter is determined by liquid scintillation spectrophotometry.
The title compounds of Examples 1-6 were tested using the above assay, in which specific binding determined in the presence of 1 mM haloperidol was 95%.

[2] = target: T2, serotonin 2A (5HT2A) receptor (Homo sapiens, UniProt P28223); assay: Serotonin 2A binding ([3H]ketanserin, Swiss-h5HT2A cell membranes); conditions: [3H]ketanserin 1.0 nM
T2 construct: expressed in transfected cells; host or cells: Swiss cells (Swiss-h5HT2A)
Text: as §1
[^3H] Ketanserin binding to Swiss-h5HT2A cell membranes can be carried out in 250 μl of 50 mM Tris-HCl buffer pH 7.4. Duplicate samples containing (in order of addition) test compounds, 1.0 nM [^3H]ketanserin, and approximately 75 μg protein are incubated for 120 minutes at room temperature. Bound radioligand is separated by rapid filtration under reduced pressure through Whatman GF/B glass fiber filters previously treated with 0.3% polyethyleneimine. Radioactivity retained on the filter is determined by liquid scintillation spectrophotometry.
The title compounds of Examples 1-6 were tested using the above assay, in which specific binding determined in the presence of 1 mM ketanserin was 90%.

T1 sequence (P14416 whole entry): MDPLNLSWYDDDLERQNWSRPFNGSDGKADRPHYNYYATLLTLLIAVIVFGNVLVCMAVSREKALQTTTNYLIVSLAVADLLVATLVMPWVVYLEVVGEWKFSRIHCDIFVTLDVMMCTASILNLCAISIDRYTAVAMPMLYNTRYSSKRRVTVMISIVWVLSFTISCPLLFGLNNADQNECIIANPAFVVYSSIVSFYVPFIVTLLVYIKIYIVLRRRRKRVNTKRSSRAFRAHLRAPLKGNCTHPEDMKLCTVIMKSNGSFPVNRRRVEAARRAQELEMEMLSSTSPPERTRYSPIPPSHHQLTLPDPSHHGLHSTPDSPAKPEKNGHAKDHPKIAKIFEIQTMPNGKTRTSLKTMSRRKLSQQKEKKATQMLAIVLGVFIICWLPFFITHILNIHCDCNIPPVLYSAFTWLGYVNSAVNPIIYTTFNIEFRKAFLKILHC
T2 sequence (P28223 whole entry): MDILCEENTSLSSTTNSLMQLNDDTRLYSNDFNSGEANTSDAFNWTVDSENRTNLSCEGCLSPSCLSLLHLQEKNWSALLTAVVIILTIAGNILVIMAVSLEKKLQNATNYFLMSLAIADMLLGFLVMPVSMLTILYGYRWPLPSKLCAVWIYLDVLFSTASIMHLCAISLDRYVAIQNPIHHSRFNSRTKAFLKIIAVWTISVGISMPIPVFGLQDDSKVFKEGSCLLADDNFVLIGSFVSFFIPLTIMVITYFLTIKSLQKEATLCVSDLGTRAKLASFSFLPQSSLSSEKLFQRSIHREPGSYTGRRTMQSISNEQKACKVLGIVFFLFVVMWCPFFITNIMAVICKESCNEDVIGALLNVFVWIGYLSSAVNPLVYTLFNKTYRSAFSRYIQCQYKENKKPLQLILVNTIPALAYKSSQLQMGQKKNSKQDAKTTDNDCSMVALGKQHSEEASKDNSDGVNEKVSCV

melting point | Compound | also measured
230 °C | CC(=O)N1CCC(C)(C)c2c(C)ccc(CCN3CCN(c4noc5ccccc45)CC3)c21 (as salt: HCl) [Example 26, 1-{8-[2-(4-BENZO[D]ISOXAZOL-3-YL-PIPERAZIN-1-YL)-ETHYL]-4,4,5-TRIMETHYL-3,4-DIHYDRO-2H-QUINOLIN-1-YL}-ETHANONE] | 
230 °C | CC1(C)CC(=O)Nc2c(CCN3CCN(c4noc5ccccc45)CC3)cc(F)cc21 [Example 27, 8-[2-(4-BENZO[D]ISOXAZOL-3-YL-PIPERAZIN-1-YL)-ETHYL]-6-FLUORO-4,4-DIMETHYL-3,4-DIHYDRO-1H-QUINOLIN-2-ONE] | 
109 °C | CC(=O)N1CCC(C)(C)c2cccc(CCCN3CCN(c4nsc5ccccc45)CC3)c21 (as salt: HCl) [Example 19, 1-{8-[3-(4-BENZO[D]ISOTHIAZOL-3-YL-PIPERAZIN-1-YL)-PROPYL]-4,4-DIMETHYL-3,4-DIHYDRO-2H-QUINOLIN-1-YL}-ETHANONE] | 
251 °C | Cl.O=C1CCc2cccc(CCN3CCN(c4nsc5ccccc45)CC3)c2N1 | 
235 °C | CC1(C)CC(=O)Nc2c(CCN3CCN(c4n[s+]([O-])c5ccccc45)CC3)cc(F)cc21 (stereo not drawn) [Example 14, 6-Fluoro-4,4-dimethyl-8-{2-[4-(1−oxo-1H-1λ^4-benzo[d]isothiazol-3-yl)-piperazin-1-yl]-ethyl}-3,4-dihydro-1H-quinolin-2-one] | 
112 °C | CC(=O)N1CCC(C)(C)c2cc(F)cc(CCN3CCN(c4noc5ccccc45)CC3)c21 (as salt: HCl) [Example 28, 1-{8-[2-(4-benzo[d]isoxazol-3-yl-piperazin-1-yl)-ethyl]-6-fluoro-4,4-dimethyl-3,4-dihydro-2H-quinolin-1-yl}-ethanone] | 
166 °C | CC1(C)CC(=O)Nc2c(CCCN3CCN(c4nsc5ccccc45)CC3)cccc21 [Example 18, 8-[3-(4-BENZO[D]ISOTHIAZOL-3-YL-PIPERAZIN-1-YL)-PROPYL]-4,4-DIMETHYL-3,4-DIHYDRO-1H-QUINOLIN-2-ONE] | 
135 °C | Cc1ccc(CCN2CCN(c3noc4ccccc34)CC2)c2c1C(C)(C)CCN2 [Example 25, 8-[2-(4-BENZO[D]ISOXAZOL-3-YL-PIPERAZIN-1-YL)-ETHYL]-4,4,5-TRIMETHYL-1,2,3,4-TETRAHYDRO-QUINOLINE] | 
191 °C | CC1(C)CC(=O)Nc2c(CCN3CCN(c4nsc5ccc(F)cc45)CC3)cc(F)cc21 [Example 16, 6-FLUORO-8-{2-[4-(5-FLUORO-BENZO[D]ISOTHIAZOL-3-YL)-PIPERAZIN-1-YL]-ETHYL}-4,4-DIMETHYL-3,4-DIHYDRO-1H-QUINOLIN-2-ONE] | 
170 °C | Cc1ccc(CCN2CCN(c3noc4ccccc34)CC2)c2c1C(C)(C)CC(=O)N2 [Example 24, 8-[2-(4-BENZO[D]ISOXAZOL-3-YL-PIPERAZIN-1-YL)-ETHYL]-4,4,5-TRIMETHYL-3,4-DIHYDRO-1H-QUINOLIN-2-ONE] | 
284 °C | CC1(C)CC(=O)Nc2c(CCN3CCN(c4nsc5ccccc45)CC3)cccc21 (as salt: hydrochloride) [Example 1, 8-[2-(4-1,2-BENZISOTHIAZOL-3-YL-PIPERAZIN-1-YL)-ETHYL]-4,4-DIMETHYL-3,4-DIHYDRO-1H-QUINOLIN-2-ONE] | 
298 °C | CC1(C)CC(=O)Nc2c(CCN3CCN(c4nsc5ccccc45)CC3)cc(F)cc21 (as salt: hydrochloride) [Example 3, 8-[2-(4-1,2-BENZISOTHIAZOL-3-YL-PIPERAZIN-1-YL)-ETHYL]-6-FLUORO-4,4-DIMETHYL-3,4-DIHYDRO-1H-QUINOLIN-2-ONE] | 

More lines, now with the values behind:

Compound | melting point | also measured
CC(=O)N1CCC(C)(C)c2c(C)ccc(CCN3CCN(c4nsc5ccccc45)CC3)c21 (as salt: HCl) [Example 21, 1-{8-[2-(4-BENZO[D]ISOTHIAZOL-3-YL-PIPERAZIN-1-YL)-ETHYL]-4,4,5-TRIMETHYL-3,4-DIHYDRO-2H-QUINOLIN-1-YL}-ETHANONE] | 132 °C | 
Cc1cc(=O)[nH]c2c(CCN3CCN(c4nsc5ccccc45)CC3)cccc12 [Example 29, 8-[2-(4-BENZO[D]ISOTHIAZOL-3-YL-PIPERAZIN-1-YL)-ETHYL]-4-METHYL-1H-QUINOLIN-2-ONE] |  | activity in reducing d-amphetamine-stimulated locomotor activity (significant decrease vs vehicle) [1]: active
Cc1ccc(CCN2CCN(c3nsc4ccccc34)CC2)c2c1C(C)(C)CC(=O)N2 [Example 20, 8-[2-(4-BENZO[D]ISOTHIAZOL-3-YL-PIPERAZIN-1-YL)-ETHYL]-4,4,5-TRIMETHYL-3,4-DIHYDRO-1H-QUINOLIN-2-ONE] | 129 °C | 
CC1(C)CC(=O)Nc2c(CCN3CCN(c4nsc5ccccc45)CC3)cccc21 [Example 1, 8-[2-(4-1,2-BENZISOTHIAZOL-3-YL-PIPERAZIN-1-YL)-ETHYL]-4,4-DIMETHYL-3,4-DIHYDRO-1H-QUINOLIN-2-ONE] |  | activity in reducing d-amphetamine-stimulated locomotor activity (significant decrease vs vehicle) [1]: active
O=C1CC(c2ccccc2)c2cccc(CCN3CCN(c4nsc5ccccc45)CC3)c2N1 (stereo not drawn) [Example 6, 8-[2-(4-1,2-BENZISOTHIAZOL-3-YL-PIPERAZIN-1-YL)-ETHYL]-4-PHENYL-3,4-DIHYDRO-1H-QUINOLIN-2-ONE] | 227 °C | Ki (dopamine D2 receptor): 13.8 nM; Ki [2]: 0.04 nM
CN1C(=O)CC(C)(C)c2cccc(CCN3CCN(c4nsc5ccccc45)CC3)c21 [Example 2, 8-[2-(4-1,2-BENZISOTHIAZOL-3-YL-PIPERAZIN-1-YL)-ETHYL]-1,4,4-TRIMETHYL-3,4-DIHYDRO-1H-QUINOLIN-2-ONE] | 261 °C | Ki (dopamine D2 receptor): 81.3 nM; Ki [2]: 0.18 nM
CC1(C)Cc2cccc(CCN3CCN(c4nsc5ccccc45)CC3)c2NC1=O [Example 5, 8-[2-(4-1,2-BENZISOTHIAZOL-3-YL-PIPERAZIN-1-YL)-ETHYL]-3,3-DIMETHYL-3,4-DIHYDRO-1H-QUINOLIN-2-ONE] | 95 °C | Ki (dopamine D2 receptor): 74.9 nM; Ki [2]: 2.07 nM
CC(=O)N1CCC(C)(C)c2cc(F)cc(CCN3CCN(c4nsc5ccc(F)cc45)CC3)c21 (as salt: HCl) | 128 °C | 
CC1(C)CC(=O)Nc2c(CCN3CCN(c4nsc5ccccc45)CC3)cc(F)cc21 [Example 3, 8-[2-(4-1,2-BENZISOTHIAZOL-3-YL-PIPERAZIN-1-YL)-ETHYL]-6-FLUORO-4,4-DIMETHYL-3,4-DIHYDRO-1H-QUINOLIN-2-ONE] |  | activity in reducing d-amphetamine-stimulated locomotor activity (significant decrease vs vehicle) [1]: active

Source: US20040067960A1, “Heterocyclic substituted piperazines for the treatment of schizophrenia” (priority 2002, published 2004)
